Laboratory results taken from patent publication US9872875B2, “Component and method for treating viral disease” (Institut Pasteur of Shanghai, Chinese Academy of Sciences, priority 2012, dated 2018).

Key:
[1] = test system: EV71; assay: Effects of other antagonists and agonists on EV71 (Table 9); format: cell-based, Enterovirus 71; parameters: key: “NO” indicates there is negative
[2] = biological target: T1, P2X3 receptor (Homo sapiens, UniProt P56373); settings: Table 9, antagonists; cited from earlier work
T1 sequence (P56373 1-397): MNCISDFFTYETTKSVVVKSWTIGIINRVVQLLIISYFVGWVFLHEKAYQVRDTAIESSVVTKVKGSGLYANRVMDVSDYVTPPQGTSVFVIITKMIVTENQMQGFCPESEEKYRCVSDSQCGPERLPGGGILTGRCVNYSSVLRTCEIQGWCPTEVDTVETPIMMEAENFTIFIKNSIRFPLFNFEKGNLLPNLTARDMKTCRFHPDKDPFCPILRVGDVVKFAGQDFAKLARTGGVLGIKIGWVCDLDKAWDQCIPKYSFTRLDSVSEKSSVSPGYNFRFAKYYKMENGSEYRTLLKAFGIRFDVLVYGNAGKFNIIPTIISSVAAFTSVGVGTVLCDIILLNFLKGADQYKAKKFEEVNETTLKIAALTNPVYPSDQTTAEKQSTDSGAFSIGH

[3] = biological target: P2Y1 (Homo sapiens, UniProt P47900); settings: Table 9, antagonists; cell names P2Y1; cited from earlier work
[4] = biological target: T2, P2X1 receptor (Homo sapiens, UniProt P51575); settings: Table 9, antagonists; cited from earlier work
T2 sequence (P51575 1-399): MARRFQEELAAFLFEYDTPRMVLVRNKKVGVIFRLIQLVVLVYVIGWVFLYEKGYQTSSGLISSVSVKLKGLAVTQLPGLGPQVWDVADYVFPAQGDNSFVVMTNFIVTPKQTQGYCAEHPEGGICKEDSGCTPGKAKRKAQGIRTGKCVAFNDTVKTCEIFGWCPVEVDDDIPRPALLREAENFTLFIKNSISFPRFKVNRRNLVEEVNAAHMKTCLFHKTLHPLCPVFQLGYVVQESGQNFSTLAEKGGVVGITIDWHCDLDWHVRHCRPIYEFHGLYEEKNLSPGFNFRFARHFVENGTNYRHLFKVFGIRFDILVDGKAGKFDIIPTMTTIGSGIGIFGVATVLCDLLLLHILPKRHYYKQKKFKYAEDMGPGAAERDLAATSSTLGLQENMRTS

P2Y1, sequence (P47900 whole entry, species assumed): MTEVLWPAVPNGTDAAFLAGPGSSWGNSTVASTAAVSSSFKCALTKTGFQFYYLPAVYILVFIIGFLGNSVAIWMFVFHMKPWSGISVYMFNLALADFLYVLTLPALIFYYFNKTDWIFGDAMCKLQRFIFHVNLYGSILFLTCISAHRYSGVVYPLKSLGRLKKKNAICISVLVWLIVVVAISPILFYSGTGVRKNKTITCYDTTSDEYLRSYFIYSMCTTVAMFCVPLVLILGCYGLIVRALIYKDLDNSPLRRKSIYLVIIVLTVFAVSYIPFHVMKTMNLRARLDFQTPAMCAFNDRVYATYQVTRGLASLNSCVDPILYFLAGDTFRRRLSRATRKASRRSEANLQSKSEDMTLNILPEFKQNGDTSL

Compound: CNc1ncnc2c1ncn2[C@H]1C[C@H](OP(=O)(O)O)[C@@H](COP(=O)(O)O)O1 [MRS 2179]
- EV71 Log10 reduction [1]: NO
- P2X receptors 3 [2]: ✓ (✓ activating concentration >300 nM)
- P2Y [3]: ✓ ✓ P2Y1 (✓ ✓ activating concentration 10 nM-300 nM)
- P2X receptors 1 [4]: ✓ (✓ activating concentration >300 nM)
